# Data published in paper PMC5327911 (Clinical Pharmacology : Advances and Applications, 2017).
# Read-outs that look alike come from different tables or passages of the source.
# Key:
# [1] = system: CYP3A4 or other CYP isoenzymes; conditions: cited from earlier work
# [2] = cited from earlier work
# Safety [3] = format: in vivo, human
# Safety [4] = format: in vivo, human; remark: listed apart in the source
# [5] = format: in vivo, human
# [6] = cited from earlier work; remark: listed apart in the source
# CYP system = conditions: cited from earlier work
# [7] = apixaban 10 mg + atenolol 100 mg vs apixaban 10 mg
compound,measurement,setting,value
COc1ccc(-n2nc(C(N)=O)c3c2C(=O)N(c2ccc(N4CCCCC4=O)cc2)CC3)cc1 [Apixaban],inhibition or induction of CYP3A4 or other CYP isoenzymes,[1],does not inhibit or induce
same,mean elimination half-life (t1/2),[2]; apixaban in healthy subjects,~ 12 hours
same,lower apixaban AUCinf in subjects ≥120 kg,[2]; effect of body weight,23%
same,lower apixaban Cmax in subjects ≥120 kg,[2]; effect of body weight,31%
same,Number of AEs,"Safety [3]; apixaban 10 mg alone, none bleeding-related",five
same,"Deaths, serious AEs, major bleeding-related AEs","Safety [3]; single doses of apixaban 10 mg, atenolol 100 mg, or both","No deaths, serious AEs, or major bleeding-related AEs"
same,"Deaths, serious AEs, major bleeding-related AEs","Safety [4]; digoxin 0.25 mg, then digoxin 0.25 mg + apixaban 20 mg once daily","No deaths, serious AEs, or major bleeding-related AEs"
same,Decrease in apixaban AUC0–t when coadministered with atenolol,[7],15%
same,Decrease in apixaban AUCinf when coadministered with atenolol,[7],15%
same,Decrease in apixaban Cmax when coadministered with atenolol,[7],18%
same,Pharmacokinetic interaction between apixaban and atenolol,"apixaban 10 mg, atenolol 100 mg, single doses",no clinically relevant interaction
same,AUCinf,"apixaban, Treatment C, apixaban 10 mg + atenolol 100 mg, geometric mean (CV %), n=14",1878 (33) ng·h/mL
same,AUC(0-inf),"human, plasma, oral, 10 mg",2.16 µg·h/mL
same,AUC(0-t),"human, plasma, oral, 10 mg",2.1 µg·h/mL
same,Cmax,"human, plasma, oral, 10 mg",0.216 µg/mL
same,Tmax,"human, plasma, oral, 10 mg",3 h
same,half-life,"human, plasma, oral, 10 mg",13.9 h
same,Effect of apixaban on the PK of digoxin,"[5]; apixaban 20 mg once daily, digoxin 0.25 mg once daily",no effect
same,bound to serum proteins,[6]; apixaban,87%
same,protein-bound,[6],87%
"CC(C)NCC(O)COc1ccc(CC(N)=O)cc1 (centres unmarked) [Atenolol, atenolol]",Tolerability of coadministration with apixaban,"Safety [3]; healthy subjects, atenolol 100 mg + apixaban 10 mg",generally well tolerated
"C[C@H]1O[C@@H](O[C@H]2[C@@H](O)C[C@H](O[C@H]3[C@@H](O)C[C@H](O[C@H]4CC[C@@]5(C)[C@H](CC[C@@H]6[C@@H]5C[C@@H](O)[C@]5(C)[C@@H](C7=CC(=O)OC7)CC[C@]65O)C4)O[C@@H]3C)O[C@@H]2C)C[C@H](O)[C@@H]1O [Digoxin, digoxin]",Tolerability of coadministration with apixaban,"Safety [4]; healthy subjects, digoxin 0.25 mg + apixaban 20 mg",generally well tolerated
same,induction or inhibition of the CYP system,CYP system,does not appear to induce or inhibit
same,Tmax,"[5]; digoxin, Treatment B, digoxin 0.25 mg + apixaban 20 mg, day 20, median (min, max)","1.00 (1.0, 2.0) h"
same,AUC,"[5]; human, serum, oral, 0.25 mg",0.0168 µg·h/mL
same,Cmax,"[5]; human, serum, oral, 0.25 mg",0.00168 µg/mL
